Data published in paper PMC9962794, “A Novel and Functionally Diverse Class of Acetylcholine-Gated Ion Channels” (The Journal of Neuroscience, 2023).
Like-named read-outs stand apart in the source and are kept apart here.

How the values were obtained:
Assay in all cases: two-electrode voltage clamp, oocytes
Assay type in all cases: cell-based
LGC-39 [1] = target: T1, LGC-39 (Caenorhabditis elegans, UniProt O17402)
T1 construct: full-length cDNA by gene synthesis, KSM vector, cRNA in Xenopus laevis oocytes; homomeric pentameric channel
T1 sequence (O17402 22-563): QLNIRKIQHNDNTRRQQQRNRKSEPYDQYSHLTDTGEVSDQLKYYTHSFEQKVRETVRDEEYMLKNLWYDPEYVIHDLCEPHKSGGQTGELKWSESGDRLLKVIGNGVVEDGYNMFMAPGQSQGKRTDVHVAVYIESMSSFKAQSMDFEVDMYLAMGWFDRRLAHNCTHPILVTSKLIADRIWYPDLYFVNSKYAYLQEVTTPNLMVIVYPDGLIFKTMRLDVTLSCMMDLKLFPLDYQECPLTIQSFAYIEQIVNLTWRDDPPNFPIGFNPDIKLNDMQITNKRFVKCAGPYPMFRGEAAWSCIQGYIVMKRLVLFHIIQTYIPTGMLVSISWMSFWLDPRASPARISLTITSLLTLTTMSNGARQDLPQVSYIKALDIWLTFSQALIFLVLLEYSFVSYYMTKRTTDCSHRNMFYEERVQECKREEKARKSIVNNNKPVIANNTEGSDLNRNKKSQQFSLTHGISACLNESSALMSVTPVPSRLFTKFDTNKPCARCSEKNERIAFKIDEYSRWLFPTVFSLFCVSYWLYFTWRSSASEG

LGC-39 [2] = target: T1, LGC-39; remark: listed apart in the source
LGC-57 = target: T2, LGC-57 (Caenorhabditis elegans, UniProt Q09453)
T2 construct: full-length untagged cDNA in KSM vector, cRNA in Xenopus laevis oocytes; pentameric, expressed alone
T2 sequence (Q09453 20-473): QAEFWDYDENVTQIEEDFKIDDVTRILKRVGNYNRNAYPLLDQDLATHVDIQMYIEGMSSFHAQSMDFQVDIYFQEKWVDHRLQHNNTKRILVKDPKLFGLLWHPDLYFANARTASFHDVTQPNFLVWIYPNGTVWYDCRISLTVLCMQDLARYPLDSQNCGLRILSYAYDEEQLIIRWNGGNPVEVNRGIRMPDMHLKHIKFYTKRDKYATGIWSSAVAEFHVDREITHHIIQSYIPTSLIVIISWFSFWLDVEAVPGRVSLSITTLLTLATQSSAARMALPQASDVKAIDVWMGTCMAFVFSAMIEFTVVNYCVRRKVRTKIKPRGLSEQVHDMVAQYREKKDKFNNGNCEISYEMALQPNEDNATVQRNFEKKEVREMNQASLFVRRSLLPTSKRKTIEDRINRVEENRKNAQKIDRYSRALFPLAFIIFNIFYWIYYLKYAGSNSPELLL

LGC-58 = target: T3, LGC-58 (Caenorhabditis elegans, UniProt Q2WF65)
T3 construct: full-length untagged cDNA in KSM vector, cRNA in Xenopus laevis oocytes; pentameric, expressed alone
T3 sequence (Q2WF65 21-546): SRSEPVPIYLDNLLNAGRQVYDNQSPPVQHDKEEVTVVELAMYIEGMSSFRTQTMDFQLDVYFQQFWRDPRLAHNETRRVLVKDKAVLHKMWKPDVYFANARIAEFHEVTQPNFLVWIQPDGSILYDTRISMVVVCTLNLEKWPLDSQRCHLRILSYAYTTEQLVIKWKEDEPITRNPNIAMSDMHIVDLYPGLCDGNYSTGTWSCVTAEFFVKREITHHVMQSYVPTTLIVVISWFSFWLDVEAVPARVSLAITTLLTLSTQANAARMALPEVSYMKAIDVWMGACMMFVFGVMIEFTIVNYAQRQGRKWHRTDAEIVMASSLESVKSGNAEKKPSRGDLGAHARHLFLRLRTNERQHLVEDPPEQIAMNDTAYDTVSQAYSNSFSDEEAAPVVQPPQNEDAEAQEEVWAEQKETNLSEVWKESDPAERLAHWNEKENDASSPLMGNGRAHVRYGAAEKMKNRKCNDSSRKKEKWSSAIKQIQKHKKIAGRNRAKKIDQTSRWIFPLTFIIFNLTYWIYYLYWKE

LGC-40 = target: T4, LGC-40 (Caenorhabditis elegans, UniProt Q22741)
T4 construct: full-length untagged cDNA in KSM vector, cRNA in Xenopus laevis oocytes; pentameric, expressed alone
T4 sequence (Q22741 23-494): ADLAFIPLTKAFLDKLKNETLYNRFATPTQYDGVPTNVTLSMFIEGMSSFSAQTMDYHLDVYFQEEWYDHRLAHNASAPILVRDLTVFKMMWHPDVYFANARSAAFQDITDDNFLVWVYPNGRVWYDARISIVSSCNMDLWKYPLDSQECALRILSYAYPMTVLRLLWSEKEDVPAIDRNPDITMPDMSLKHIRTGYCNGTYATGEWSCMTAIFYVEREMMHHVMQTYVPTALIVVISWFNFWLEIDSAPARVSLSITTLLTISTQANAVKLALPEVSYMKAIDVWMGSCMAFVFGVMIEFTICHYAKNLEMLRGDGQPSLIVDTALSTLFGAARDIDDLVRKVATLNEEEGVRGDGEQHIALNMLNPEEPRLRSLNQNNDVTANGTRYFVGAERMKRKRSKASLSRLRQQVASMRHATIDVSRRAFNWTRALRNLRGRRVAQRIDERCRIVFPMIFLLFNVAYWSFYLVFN

LGC-46 = target: T5, LGC-46 (Caenorhabditis elegans, UniProt Q95Y52); conditions: agonist; ND96, clamped at -60 mV
T5 construct: full-length cDNA in KSM vector, cRNA in Xenopus laevis oocytes; pentameric, expressed alone
T5 sequence (Q95Y52 19-508): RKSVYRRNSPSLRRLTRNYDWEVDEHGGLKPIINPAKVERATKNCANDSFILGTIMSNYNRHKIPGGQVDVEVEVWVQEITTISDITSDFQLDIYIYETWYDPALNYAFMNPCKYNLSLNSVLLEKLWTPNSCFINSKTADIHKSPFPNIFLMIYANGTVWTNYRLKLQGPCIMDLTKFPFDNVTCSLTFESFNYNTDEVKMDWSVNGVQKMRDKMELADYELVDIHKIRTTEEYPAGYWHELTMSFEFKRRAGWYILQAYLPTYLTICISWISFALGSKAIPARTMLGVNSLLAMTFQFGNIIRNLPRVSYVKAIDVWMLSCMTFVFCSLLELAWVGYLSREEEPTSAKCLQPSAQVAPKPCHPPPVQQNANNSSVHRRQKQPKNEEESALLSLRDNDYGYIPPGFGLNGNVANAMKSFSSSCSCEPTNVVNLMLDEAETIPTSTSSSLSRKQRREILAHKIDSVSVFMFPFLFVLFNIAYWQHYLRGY

LGC-49 = target: T6, LGC-49 (Caenorhabditis elegans, UniProt Q21420)
T6 construct: full-length cDNA in KSM vector, cRNA in Xenopus laevis oocytes; homomeric pentameric channel
T6 sequence (Q21420 26-457): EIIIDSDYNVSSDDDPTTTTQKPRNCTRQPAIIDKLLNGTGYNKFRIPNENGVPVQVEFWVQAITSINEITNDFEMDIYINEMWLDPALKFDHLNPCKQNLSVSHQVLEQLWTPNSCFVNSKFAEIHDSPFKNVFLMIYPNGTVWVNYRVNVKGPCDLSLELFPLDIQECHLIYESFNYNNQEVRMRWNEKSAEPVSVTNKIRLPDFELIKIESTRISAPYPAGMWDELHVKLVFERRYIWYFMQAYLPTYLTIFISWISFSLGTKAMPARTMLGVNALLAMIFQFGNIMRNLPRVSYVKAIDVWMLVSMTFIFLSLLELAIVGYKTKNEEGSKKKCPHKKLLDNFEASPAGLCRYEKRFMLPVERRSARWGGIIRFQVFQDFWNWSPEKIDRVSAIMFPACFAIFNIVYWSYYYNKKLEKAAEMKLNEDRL

NC1=NCC2c3ccccc3Cc3ccccc3N12 (stereo not drawn) [epinastine]
EC50 (LGC-39 [1]; read-out: EC50): 10 µM | IC50 (LGC-39 [2]): 1 µM

NCCc1ccc(O)cc1 [tyramine]
EC50 (LGC-39 [1]; read-out: EC50): 686 µM

NC[C@H](O)c1ccc(O)cc1 [octopamine]
EC50 (LGC-39 [1]; read-out: EC50): 921 µM

O=C1C[C@@H]2OCC=C3CN4CC[C@]56c7ccccc7N1[C@H]5[C@H]2[C@H]3C[C@H]46 [strychnine]
EC50 (LGC-39 [1]): 7.5 µM

C[N+](C)(C)CCO [choline]
EC50 (LGC-57): 22 µM | EC50 (LGC-58): 15 µM | EC50 (LGC-40): 15 µM

CC(=O)OCC[N+](C)(C)C [acetylcholine]
EC50 (LGC-46): the ACh-induced dose–response curve for LGC-46 | EC50 (LGC-57): 115 µM | EC50 (LGC-39 [1]; read-out: EC50): 1290 µM | EC50 (LGC-58): 41 µM | EC50 (LGC-40): 117 µM | EC50 (LGC-49): 19 µM

COC(=O)[C@@H]1[C@H]2C[C@H]3c4[nH]c5ccccc5c4CCN3C[C@@H]2CC[C@@H]1O [yohimbine]
IC50 (LGC-39 [2]): 4 µM
